Test results taken from patent US9782411B2, “{4-[5-(3-chloro-phenoxy)-oxazolo[5,4-d]pyrimidin-2-yl]-2,6-dimethyl-phenoxy}-acetic acid for use in the prevention or treatment of acute kidney injury” (Sanofi, priority 2013, dated 2017).
Values joined by “and” are separate entries in the source; they are usually repeats but may differ in a detail not shown here. Equal values may be shown once.

Assays:
S1P3 [1] = target: T1, S1P3 (Homo sapiens, UniProt Q99500); assay: PathHunter β-arrestin assay, S1P3; format: cell-based; settings: 0.5% FBS
T1 sequence (Q99500 whole entry): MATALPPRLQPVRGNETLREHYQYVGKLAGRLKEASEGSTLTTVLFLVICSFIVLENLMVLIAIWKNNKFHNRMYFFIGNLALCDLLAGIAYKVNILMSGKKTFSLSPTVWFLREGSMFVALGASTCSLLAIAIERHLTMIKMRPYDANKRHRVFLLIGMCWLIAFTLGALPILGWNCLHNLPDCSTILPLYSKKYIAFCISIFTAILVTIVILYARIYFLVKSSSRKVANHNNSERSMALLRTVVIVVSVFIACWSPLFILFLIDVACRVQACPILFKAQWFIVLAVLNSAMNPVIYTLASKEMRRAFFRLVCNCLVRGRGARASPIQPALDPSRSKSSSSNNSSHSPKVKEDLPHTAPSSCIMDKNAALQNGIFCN
Procedure: (§1) The PathHunter® β-Arrestin Assay from DiscoverX was used to determine the EC50 activity of compound A, BAF-312 and fingolimod on S1P1, S1P2, S1P3, S1P4 or S1P5 receptors. The compounds were tested in assay medium containing 0.5% FBS.

S1P1 [2] = target: T2, S1P1 (Homo sapiens, UniProt P21453); assay: PathHunter activated GPCR internalization assay, CHO; format: cell-based; set-up: host or cells: CHO (PathHunter); settings: 0.5% FBS
T2 sequence (P21453 whole entry): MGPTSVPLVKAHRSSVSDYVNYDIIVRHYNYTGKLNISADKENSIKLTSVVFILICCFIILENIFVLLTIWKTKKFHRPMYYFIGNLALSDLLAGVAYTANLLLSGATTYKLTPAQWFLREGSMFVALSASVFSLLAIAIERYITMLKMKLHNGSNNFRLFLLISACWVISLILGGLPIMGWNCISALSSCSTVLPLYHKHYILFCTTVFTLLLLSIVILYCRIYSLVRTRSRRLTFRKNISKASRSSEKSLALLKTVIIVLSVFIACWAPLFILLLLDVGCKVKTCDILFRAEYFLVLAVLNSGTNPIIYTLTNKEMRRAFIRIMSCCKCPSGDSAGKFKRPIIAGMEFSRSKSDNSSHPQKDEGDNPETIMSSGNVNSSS
Procedure: (§2) The compounds were tested in assay medium containing 0.5% FBS.

S1P3 [3] = target: T1, S1P3; assay: FlipR (Chem) GPCRProfiler assay, S1P3; format: cell-based
Text: (§3) The GPCRProfiler® assay from Millipore was used to determine the EC50 activity of compound A, BAF-312 and fingolimod on S1P1, S1P2, S1P3, S1P4 or S1P5 receptors. These assays used ChemiScreen GPCR stable cell lines.

S1P1 [4] = target: T2, S1P1; assay: cAMP HTRF assay in forskolin-treated HUVEC; format: cell-based; set-up: host or cells: HUVEC (primary); settings: 0.1% BSA
Procedure: Briefly, HUVEC (Lonza) were seeded at 5×10^3 cells per well into a white 96 multiwell plate (half volume) for 24 hours in EGM2 medium (Lonza). At the beginning of the experiment, EGM2 medium was replaced by assay buffer consisting in HBSS containing Hepes (10 mM), BSA (0.1%) and IBMX (0.5 mM). Cells were allowed to recover during 15 min. […] After 45 min of FSK treatment, reaction was stopped by addition of MAb anti-cAMP-cryptate and cAMP-D2 for 1 hour. At the end of the incubation, fluorescence was read (Envision, Perkin Elmer) and FRET ratio calculated according to assay kit protocol.

S1P1 [5] = target: T2, S1P1; assay: PathHunter β-arrestin assay, CHO; format: cell-based; set-up: host or cells: CHO (PathHunter); settings: 0.5% FBS
Procedure: as §2

S1P2 = S1P2 (Homo sapiens, UniProt O95136); assay: PathHunter β-arrestin assay, S1P2; format: cell-based; settings: 0.5% FBS
Sequence of S1P2 (O95136 whole entry): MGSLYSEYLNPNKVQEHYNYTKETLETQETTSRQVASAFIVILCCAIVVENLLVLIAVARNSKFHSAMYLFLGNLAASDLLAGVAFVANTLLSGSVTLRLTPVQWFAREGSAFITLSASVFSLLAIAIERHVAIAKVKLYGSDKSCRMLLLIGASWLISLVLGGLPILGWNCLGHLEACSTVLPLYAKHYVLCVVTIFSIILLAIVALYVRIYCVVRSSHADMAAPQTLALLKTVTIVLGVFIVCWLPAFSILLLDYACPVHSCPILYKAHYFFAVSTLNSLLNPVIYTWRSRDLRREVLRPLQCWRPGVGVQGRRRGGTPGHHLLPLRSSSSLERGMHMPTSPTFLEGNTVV
Procedure: as §1

S1P1 [6] = target: T2, S1P1; assay: Impedance assay in HUVEC; format: cell-based; set-up: host or cells: HUVEC (primary); settings: 2% FBS
Procedure: On day 1, primary cells were seeded into 96-well e-plates pre-coated with collagen-I with 20,000 cells per well. […] After incubation with the S1PR agonists, the cells were carefully washed twice with medium followed by a 5.5 h recovery period. Then the effect of the preceding 1st stimulation on receptor desensitization was assessed using a 2nd stimulation of increasing S1P concentrations (0.1, 1 and 10 μM) and measuring the resulting impedance. All measurements were done at least in triplicates. […] Results are expressed in arbitrary impedance unit as mean+/−s.e.m.

S1P5 [7] = target: T3, S1P5 (Homo sapiens, UniProt Q9H228); assay: FlipR (Chem) GPCRProfiler assay, S1P5; format: cell-based
T3 sequence (Q9H228 whole entry): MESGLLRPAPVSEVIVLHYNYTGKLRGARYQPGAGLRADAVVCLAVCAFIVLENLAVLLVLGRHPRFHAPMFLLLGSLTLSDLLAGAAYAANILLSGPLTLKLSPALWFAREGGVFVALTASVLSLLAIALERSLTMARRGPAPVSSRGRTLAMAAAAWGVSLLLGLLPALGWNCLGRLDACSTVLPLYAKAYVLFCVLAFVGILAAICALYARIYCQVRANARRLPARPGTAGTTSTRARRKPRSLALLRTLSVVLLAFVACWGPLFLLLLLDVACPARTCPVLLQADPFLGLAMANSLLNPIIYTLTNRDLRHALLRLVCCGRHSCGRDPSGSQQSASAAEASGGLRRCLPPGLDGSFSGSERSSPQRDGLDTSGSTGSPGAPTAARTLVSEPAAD
Text: as §3

Fischer rats [8] = assay: Rat model of renal ischemia reperfusion (I/R) injury; format: in vivo; settings: for AKI protection (FIG. 3-D): Fischer rats, compound A at 3 mg/kg
Procedure: Male Fischer rats (n=3-9, 250 to 300 g) (Charles River Laboratory, France) received oral administration of compound A at 0.3, 1 and 3 mg/kg or BAF-312 at 3, 10 and 30 mg/kg or vehicle article (methylcellulose 0.6%—tween 80 0.5% in water) within a volume of administration of 2 mL/kg, one hour before renal ischemia. In a second set of experiment, compound A was administrated b.i.d. during 5 days to assess potential tachyphylaxia. Briefly, animals were subjected to sham surgery (i.e. laparotomy, renal arteries isolation) or to 25 min bilateral renal artery occlusion under pentobarbital (50 mg/kg i.p.) anaesthesia. Body temperature (37° C.-38° C.) and hydration (peritoneal injection of physiological serum) were carefully monitored to standardize the surgery procedure and limit inter-individual variability. At the end of the ischemic period, kidneys were reperfused by removing clamps, and the quality of reperfusion was controlled before suturing muscular and cutaneous plan (animals with poor reperfusion were excluded immediately). Twenty-four hours later, blood and kidneys were collected. Blood was centrifuged (3000 g, 10 min) and heparinised plasma frozen for creatinine evaluation using a biochemical analyser (P400, Horiba, France). One kidney was frozen for western blot analyses for tissue albumin (anti-albumin, Santa Cruz) and tissue HSP70 (monoclonal anti-HSP70 antibody from Santa Cruz #SC32239) evaluation and the second one fixed (10% neutral-buffered formalin) and paraffin-embedded for histological analyses on 5 μm-thick slice (acute tubular necrosis quantification using classical hematoxylin-erythrosin-Saffran, modified Masson's trichrome and periodic acid-Schiff associated blue alcine) and immunohistochemistry analyses (macrophage staining with monoclonal anti-CD68 antibody from Acris #BM4000, and capillary staining with monoclonal ant-PECAM antibody from Santa Cruz #SC1506, using Ventana robot, VMS Inc.). […] CD68 and PECAM immunolabeling are expressed as percentage of positive pixel count (Aperio algorithm) on whole section. Plasma creatinine is expressed as mean+/−s.e.m.

Fischer rats [9] = assay: Lung vascular leak study in rat (Evans blue); format: in vivo; settings: Fisher rats, 7 days p.o. b.i.d.; compound A 1, 3 and 10 mg/kg; BAF-312 3 and 30 mg/kg
Procedure: Male Fischer rats (n=4-8, 280-350 g) (Charles River Laboratory, France) were treated, orally and twice a day, for 7 days with compound A (1, 3, 10, 30 and 100 mg/kg), BAF-312 (0.03, 0.1, 0.3, 3 and 30 mg/kg) or vehicle article (methylcellulose 0.6%—tween 80 0.5% in water) within a volume of administration of 2 mL/kg. After 7 days, rats were anesthetized using an i.p. injection of pentobarbital (50 mg/kg). Evans blue was injected i.v. in the retro-orbital sinus at 30 mg/kg in 1 mL/kg. Fifteen minutes later, physiological serum was injected by the left ventricle to rinse the body from residual intravascular Evans blue. Lung tissue was collected and weighted and then immersed in a pure formamide solution (4 mL/g tissue weight) during 24 h to extract tissue Evans blue and therefore evaluate vascular permeability. Evans blue concentration was evaluated at […] using a standard curve. Results are expressed as means+/−s.e.m.

S1P5 [10] = target: T3, S1P5; assay: PathHunter β-arrestin assay, S1P5; format: cell-based; settings: 0.5% FBS
Procedure: as §1

[11] = single experiments (footnote), read-out: EC50, internalisation assay, values of the 2 separate experiments
[12] = starred values are means of 2 separate experiments, read-out: EC50, Internalization, CHO
[13] = single experiments (footnote), read-out: EC50, β-arrestin assay, values of the 2 separate experiments
[14] = starred values are means of 2 separate experiments, read-out: EC50, β-arrestin, CHO

SMILES	EC50 (S1P3 [1])	EC50 (S1P1 [2]; [11])	EC50 (S1P1 [2]; [12])	EC50 (S1P3 [3])	EC50 (S1P1 [4])	EC50 (S1P1 [5]; [13])	EC50 (S1P1 [5]; [14])	EC50 (S1P2)	EC50 (S1P1 [6])	EC50 (S1P5 [7])	AKI protection (FIG. 3-D) (Fischer rats [8])	Lung vascular leakage (Evans blue extravasation) (Fischer rats [9])	EC50 (S1P5 [10])	further results
Cc1cc(-c2nc3cnc(Oc4cccc(Cl)c4)nc3o2)cc(C)c1OCC(=O)O [Compound A, {4-[5-(3-chloro-phenoxy)-oxazolo[5,4-d]pyrimidin-2-yl]-2,6-dimethyl-phenoxy}-acetic acid]	> 10000 nM	160 nM and 266 nM	213 nM	> 30000 nM	15600 nM	800 nM and 511 nM	656 nM	> 10000 nM	172 nM	1000 nM	full AKI protection	did not induce lung vascular leakage	1300 nM	Albumin extravasation (cortical albumin, western blot) (Fischer rats [8]; 3 mg/kg p.o.): preventing albumin extravasation; Tachyphylaxis (Fischer rats [8]; 3 mg/kg p.o. BID for 5 days vs single administration): no sign of tachyphylaxis; Effect on serum creatinine, dose dependence and significance (Fischer rats [8]; 1 and 3 mg/kg p.o.): dose-dependent and statistically significant; Reduction of severity of AKI (limiting the rise of serum creatinine) (Fischer rats [8]; p.o. 1 hour before occlusion, 24 h reperfusion): 85-90%; Capillaries (histological analysis) (Fischer rats [8]; rat, in vivo): preserving capillaries; Macrophages infiltration (Fischer rats [8]; rat, in vivo): reduced macrophages infiltration; Renal HSP70 protein (Fischer rats [8]; rat, in vivo): increased renal HSP70 protein; Renal proximal tubule necrosis (Fischer rats [8]; rat, in vivo): protected renal proximal tubules from necrosis
CCc1cc(/C(C)=N/OCc2ccc(C3CCCCC3)c(C(F)(F)F)c2)ccc1CN1CC(C(=O)O)C1 [BAF-312]	> 10000 nM	< 0.5 nM and 0.67 nM	< 0.59 nM	> 30000 nM	74 nM	7.9 nM and 2.83 nM	5.4 nM	> 10000 nM	0.21 nM	300 nM	partial AKI protection	induced vascular leakage	35 nM	Reduction in serum creatinine (Fischer rats [8]; doses up to 30 mg/kg p.o.): ≤ 40%
